# Reference: ChEMBL document CHEMBL1157261, “Neuroprotective 2-(2-phenylethyl)chromones of Imperata cylindrica” (2006)
# Assay: Neuroprotective activity against glutamate-induced neurotoxicity in Sprague-Dawley rat cortical cells at 10 uM after 24 hrs by MTT assay relative to control
# Assay type: functional
row,SMILES,Activity
1,O=c1cc(/C=C/c2ccccc2)oc2cccc(O)c12,-11.3%
2,C[C@]12N[C@H](Cc3ccccc31)c1ccccc12.O=C(O)/C=C\C(=O)O [DIZOCILPINE MALEATE],82.2%
3,O=c1cc(CCc2ccccc2)oc2cccc(O)c12,67%
4,O=c1cc(CCc2ccccc2O)oc2cccc(O)c12,63.6%
